Assay results as given in patent US11440935B2, “3″,5″-dimethoxybenzoyl-3′-amino-3′-deoxy adenosine-5′-triphosphates and pharmaceutical uses thereof” (Danmir Therapeutics, LLC, priority 2018, dated 2022).
Where “and” joins values, the source holds several entries; their conditions need not be identical. Equal values may be shown once.

Tests used:
[1] = tested on: anesthetized guinea-pigs; experiment: ATP-induced bronchoconstriction in anesthetized guinea-pig (tracheal pressure); assay type: in vivo; details: pretreatment with aerosolized DT-0111, anesthetized guinea-pigs
Procedure: Male Dunkin-Hartley guinea pigs (GPs) (220-250 g, Charles River) were quarantined for 14 days. The housing room was constantly ventilated, and the temperature kept at 23° C. Mean body weight of the GPs on day of experiment was 336.0±9.9 g. Anesthesia were induced by using a mixture of ketamine+xylazine (40-80 mg/kg+5-10 mg/kg; IM) as previously published (Zhuang, et al., “High-Frequency Electrical Stimulatino of Cervical Vagi Reduces Airway Response to Methacholine,” World J. of Respirology 2013 Jul. 28; 3(2): 11-19). Supplementary anesthetic doses (¼-½ of the original dose) were administered as needed if ear pinch changed respiratory rate and/or upon the manifestation of an accelerated heart rate. Body temperature was monitored continuously with a rectal thermometer and maintained at approximately 36.5° C. using a heating pad and lamp. […]
The side branch of the tracheal cannulation was connected a pressure transducer. The pressure signal was pre-amplified by a bridge amplifier (AD Instruments Inc., CO) and then digitized and recorded. […] The pressure signal and animal rectal temperature were monitored and digitally recorded continuously in computer files throughout the experiment using the PowerLab/8 sp data acquisition system (AD Instruments) with DELL XPS 8700 computer equipped with Microsoft Windows 7 and LabChart Pro 7 software. […]

[2] = tested on: conscious guinea-pigs; experiment: Aerosolized ATP-induced cough in conscious free moving guinea-pigs; assay type: in vivo, guinea-pig
Procedure: This study was performed in 6 guinea-pigs. The housing room was constantly ventilated, and the temperature kept at ˜23° C. After quarantine, the animals were individually placed in a whole-body, unrestrained, plethysmograph chamber (model PLY3215, Buxco Electronics Inc., Troy, N.Y.) for ˜40 min once a day for two continuous days before the cough test. All GPs were weighed before the cough study.
ATP was purchased from Sigma-Aldrich (Cat #A2383-10G). Solutions of ATP used for aerosol challenge were freshly made just prior to use by dissolving the powder in 0.9% saline (NaCl) solution. Solutions of DT-0111 used for aerosol administration were freshly made by dissolving the powder in 0.9% saline (NaCl) solution.
A plethysmograph chamber was continuously flushed with normoxic (21% O2 and 79% N2) room air at 2 L/min. The same amount of air was drawn through the chamber base outlets using a Buxco bias flow regulator to keep the chamber bias flow balanced. ATP or DT solution was aerosolized by using a vibrating mesh nebulizer (Ireland Ltd., Galway Ireland, AG-AL1100). The output rate of delivered aerosol was around 0.5 ml/min with droplet size (volume median diameter) at 2.5-4.0 μm (manufacture's indications). The aerosol was mixed with airflow and directly delivered into the plethysmograph chamber. The latter was placed in a standard chemical fume hood (size: 3×6 ft) installed in a standard laboratory.
A guinea-pig was placed in the chamber again after adaptation. Following stabilization, #1 guinea-pig was exposed to aerosolized ATP at 6 mg/ml, 24 mg/ml, and then 48 mg/ml for 5 min with an interval of 30 min. The remaining animals (#2-#6 guinea-pigs) were exposed to aerosolized ATP at 48 mg/ml for 5 min. Approximately 140 min later, the same dose of ATP was repeated immediately after DT-0111 aerosol inhalation (12 mg/ml for 5 min). […] The cough sound and behavioral activities were continuously monitored and recorded before (for 3 min), during 5 min aerosol delivery, and 20 min after cessation of the delivery.
Setup of the cough recording system. The top of the plethysmograph chamber was connected with a plastic tube that was attached by the nebulizer. Normoxic air driven by the nebulizer controller was flowed into the chamber and sucked out by the bias flow regulator with the in and out flow volume balanced (2.0 L/min). To detect cough, a microphone system was mounted in the roof of the chamber to record sound; a video camera was placed outside of the chamber to monitor animal body posture; and a Buxco pneumotachograph (differential pressure transducer) attached to the chamber to record airflow. All signals generated by video camera, microphone, and pressure transducer were amplified and recorded continuously by PowerLab/8 sp (model ML 785; ADInstruments Inc., Colorado Springs, Colo.) and a computer with the LabChart Pro 7 software.
Cough count. A typical cough response, as reported before (Girard et al., Eur Respir J, 1995; Blasko et al., American Journal of Advanced Drug Delivery. 5:131-138, 2017; Corboz et al., Journal of Pharmacology and Experimental Therapeutics. 363: 348-357, 2017), was defined by the simultaneous appearance of: 1) a transient and great change in the airflow (a rapid inspiration followed by rapid expiration); 2) a typical cough sound with the peak power density at 1-2 kHz in frequency spectrum (sneeze at 3.5-6.5 kHz); and 3) animal body (head) posture and movement.

[3] = DT (12 mg/ml, 5 min) + ATP (48 mg/ml), per guinea-pig
[4] = aerosolized DT-0111 12 mg/ml, n=5

Sodium 3′-N-(3,5-dimethoxybenzoyl)-3′-deoxy-β-D-adenosine 5′-triphosphate [DT-0111]
tracheal pressure (Ptr) after ATP doses [1]: significantly suppressed
Bout Cough T1# [2, 3]: 0
Bout Cough T2# [2, 3]: 0
Individual Cough ([2]; DT (12 mg/ml, 5 min) + ATP (48 mg/ml), per guinea-pig, listed as DT): 0 (2×) and 1 (2×) and 7
effect on ATP-induced bout of coughs [2, 4]: blocked the bout of coughs in all tested animals
effect on ATP-induced individual coughs [2, 4]: little effect on individual coughs
cough evoked by the compound per se ([2]; aerosolized DT-0111 alone): did not evoke any cough
